Measured values reported in patent US6399583B1, “Hybrid anthracyclines from genetically engineered streptomyces galilaeus strains, process for production and uses thereof” (Galilaeus Oy, priority 1998, dated 2002).
pEC50: −log10 of the molar value.

Key:
[1] = system: MES-SA human uterine sarcoma cells; test: Cytotoxicity assay, luminescence ATP detection, MES-SA; assay type: cell-based; settings: three days incubation, ATP content, highest concentration 10^-5 M, read-out: ED50 (nM) MES-SA
Experimental: (§1) The cytotoxicities of the new anthracyclines were tested in vitro with two cell lines: human uterine sarcomas MES-SA (CRL-1976; American Type Culture Collection (ATCC), Rockville, Md., USA) and MES-SA/D×5 (CRL-1977; ATCC, Rockville, Md., USA). MES-SA/D×5 has been developed by growing MES-SA cells in increasing concentrations of doxorubicin (Harker and Sikic, 1985).
(§2) Monolayer cultures were grown in McCoy's 5A medium with L-glutamine (Gibco BRL) supplemented with 10% FBS (Foetal Bovine Serum, Gibco BRL). No antibiotics were added. As the resistance is stable for at least 20 passages, the MES-SA/D×5 cells were grown without anthracycline selection (Harker and Sikic, 1985). Cells were maintained at 37° C. with 5% CO2 and subcultured every 3-5 days.
(§3) The cytotoxicity tests were performed in 96-well microtiter plates (sterile white plates with clear bottom, Corning Costar Corporation, Cambridge, Mass., USA). The anthracyclines were pipetted into the plates in 10 μl of ethanol, pure ethanol was used for control plates. Daunorubicin and aclarubicin were used as positive controls. When the ethanol had evaporated, the cells were seeded into the plates in 100 μl of appropriate medium. The number of cells seeded per well was 2500 with MES-SA, 3000 with MES-SA/D×5, 3000 with LL/2, 2000 with B16-F0 and B16-F1, 2000 with KLN-205 and 8000 with MLTC-1. The ATP content of the cells was measured after incubating the cells for three days at 37° C. with 5% CO2.
(§4) The growth medium was removed by turning the plates over, and 200 μl of ATP extraction reagent, Somalyze, were added to the wells. The plates were then incubated for 30 minutes at room temperature. The ATP measurement was performed with Luminoskan luminometer (Labsystems Oy, Helsinki, Finland) at 22° C. 20 μl of ATP monitoring reagent containing luciferin and luciferase was dispensed, and an integral measurement of 10 s with 2 s lag time was performed for each well. All reagents used were supplied by Bio-Orbit Oy, Turku, Finland.
(§5) The direct luminometer output (in relative light units, RLUS) was used to calculate the cytotoxic effect. This light signal is directly proportional to the amount of […] in a wide range (determined with Bio-Orbit ATP standard, data not shown). On the other hand, the amount of ATP is directly proportional to the amount of living cells (Kangas et al., 1984). The results are expressed as percentages of the control value of untreated cells. An IC50 value (the drug concentration resulting to an ATP signal of 50% of the untreated control signal) was graphically estimated from the % of control vs. drug concentration plot.

[2] = system: MES-SA/D×5 uterine sarcoma cells (doxorubicin-resistant, MDR); test: Cytotoxicity assay, luminescence ATP detection, MES-SA/D×5; assay type: cell-based, human; settings: MES-SA/D×5 cells, three days incubation, ATP content; highest concentration 10^-5 M; read-out: ED50 (nM) MES-SA/D × 5
Experimental: as §1, §2, §3, §4, §5

B16-F0 melanoma = test: Cytotoxicity assay, ATP detection, B16-F0; assay type: cell-based, mouse; settings: B16-F0 cells in vitro; read-out: ED50 B16-F0
Experimental: as §3, §4, §5
(§6) H075-4a was also tested with several mouse cell lines in vitro (all were purchased from ATCC, Rockville, Md., USA): Lewis lung carcinoma (LL/2) (CRL-1642), B16-F0 melanoma (CRL-6322), B16-F1 melanoma (CRL-6323), KLN-205 lung squamous cell carcinoma (CRL-1453) and MLTC-1 leydig cell tumor (CRL-2065) using daunomycin, aclarubicin and H075-1a (MA 144U1) as references.
(§7) All cells grew as monolayers and were cultured at 37° C. with 5% CO2 according to ATCC standard instructions for each cell line: LL/2 in Dulbecco's modified Eagle's medium with 4.5 g/l glucose and 10% FCS, B16-F0 and B16-F1 in MEM (Eagle) in Earle's BSS with non-essential amino acids and 10% FCS, KLN-205 in MEM (Eagle) in Earle's BSS with non-essential amino acids and 10% FCS, MLTC-1 in RPMI 1640 with 25 mM HEPES and 10% FBS. All media were purchased from Gibco BRL, the serum was Gibco BRL Foetal Bovine Serum. […]

B16-F1 melanoma = test: Cytotoxicity assay, ATP detection, B16-F1; assay type: cell-based, mouse; settings: B16-F1 cells in vitro; read-out: ED50 B16-F1
Experimental: as §3, §4, §5, §6, §7

[3] = system: KLN-205 lung squamous cell carcinoma; test: Cytotoxicity assay, ATP detection, KLN-205; assay type: cell-based, mouse; settings: KLN-205 cells in vitro; read-out: ED50 KLN-205
Experimental: as §3, §4, §5, §6, §7

[4] = system: Lewis lung carcinoma (LL/2); test: Cytotoxicity assay, ATP detection, LL/2; assay type: cell-based, mouse; settings: LL/2 cells in vitro; read-out: ED50 LL/2
Experimental: as §3, §4, §5, §6, §7

MLTC-1 leydig cell tumor = test: Cytotoxicity assay, ATP detection, MLTC-1; assay type: cell-based, mouse; settings: MLTC-1 cells in vitro; read-out: ED50 MLTC-1
Experimental: as §3, §4, §5, §6, §7

SK-N-MC = test: Cytotoxicity assay, ATP detection, SK-N-MC; assay type: cell-based; settings: SK-N-MC cells in vitro; read-out: ED50 SK-N-MC
P388 leukemia = test: Cytotoxic activity in vivo: P388 leukemia model; design: species or system mice; settings: 10^6 P388 cells i.p. day 0
Excerpt: P388 leukemia was maintained by serial intraperitoneal (i.p.) transplantations in DBA/2JBom female mice purchased from M & B A/S, Ry, Denmark. The animals were maintained at the facilities of Central Animal Laboratory, University of Turku. The management of the animal unit is based on and followed the guidelines: “European Convention for the protection of Vertebrate Animals used for Experimental and other Scientific Purposes, European Treaty Series No. 123 (EU No. 609/86), Official Journal of European Communities No. L 358, Strasbourg Nov. 24, 1986”, and “The Statute No. 1360/90 of the Finnish Law, Helsinki Dec. 21, 1990: Asetus kokeellisiin ja muihin tieteellisiin tarkoituksiin käytettävien selkärankaisten eläinten suojelemiseksi tehdyn eurooppalaisen yleissopimuksen voimaansaattamisesta. Suomen s{umlaut over (aa)}doskokoelma.”
The in vivo tests were started by injecting 10^6 P388 cells suspended in Dulbecco's phosphate buffered saline i.p. in mice on day 0. Groups of 3 mice were used. The drugs were administered i.p. on day 1 on the basis of individual body weight. The control group received vehicle (10% ethanol in Dulbecco's phosphate buffered saline).

| SMILES | EC50 [1] | EC50 [2] | also measured |
| --- | --- | --- | --- |
| CCC1(O)CC(OC2CC(N(C)C)C(OC3CC(O)C(OC4CC(O)C(O)C(C)O4)C(C)O3)C(C)O2)c2c(cc3c(c2O)C(=O)c2c(O)cccc2C3=O)C1C(=O)OC (stereo not drawn) [Akv-Rhn-dF-dF, aklavinone-rhodosamine-2-deoxyfucose-2-deoxyfucose] | 6 nM | 540 nM | pEC50 (B16-F0 melanoma): 7.85; pEC50 (B16-F1 melanoma): 7.92; pEC50 [3]: 7.05; pEC50 [4]: 7.42; pEC50 (MLTC-1 leydig cell tumor): 6.22; pEC50 (SK-N-MC): 7.52 |
| CCC1(O)CC(OC2CC(N(C)C)C(OC3CC(O)C(OC4CC(O)C(O)C(C)O4)C(C)O3)C(C)O2)c2c(cc3c(c2O)C(=O)c2c(O)cccc2C3=O)C1O (stereo not drawn) [Compound H075-2a] | 3200 nM | > 10000 nM |  |
| CCC1(O)CC(OC2CC(N(C)C)C(OC3CC(O)C(O)C(C)O3)C(C)O2)c2c(cc3c(c2O)C(=O)c2c(O)cccc2C3=O)C1O (stereo not drawn) [Compound H075-2b] | 400 nM | > 10000 nM |  |
| CCC1(O)CC(OC2CC(O)C(OC3CC(O)C(OC4CC(O)C(O)C(C)O4)C(C)O3)C(C)O2)c2c(cc3c(c2O)C(=O)c2c(O)cccc2C3=O)C1O (stereo not drawn) [Compound H075-2d] | > 10000 nM | > 10000 nM |  |
| COC(=O)C1c2cc3c(c(O)c2C(OC2CC(O)C(OC4CC(O)C(OC5CC(O)C(O)C(C)O5)C(C)O4)C(C)O2)CC1(C)O)C(=O)c1c(O)cccc1C3=O (stereo not drawn) [Compound H075-3d] | > 10000 nM | > 10000 nM |  |
| COC(=O)C1c2c(O)c3c(c(O)c2C(OC2CC(O)C(OC4CC(O)C(O)C(C)O4)C(C)O2)CC1(C)O)C(=O)c1c(O)cccc1C3=O (stereo not drawn) [Compound H075-5e] | 5200 nM | > 10000 nM |  |
| CC1OC(OC2C(C)OC(OC3CC(C)(O)C(O)c4cc5c(c(O)c43)C(=O)c3c(O)cccc3C5=O)CC2N(C)C)CC(O)C1O (stereo not drawn) [Compound H075-6b] | 200 nM | > 10000 nM |  |
| CC1OC(OC2CC(C)(O)C(O)c3cc4c(c(O)c32)C(=O)c2c(O)cccc2C4=O)CC(N(C)C)C1O (stereo not drawn) [Compound H075-6c] | 4200 nM | > 10000 nM |  |
| CCC1(O)Cc2cc3c(c(O)c2C(OC2CC(N(C)C)C(OC4CC(O)C(OC5CC(O)C(O)C(C)O5)C(C)O4)C(C)O2)C1)C(=O)c1c(O)cccc1C3=O (stereo not drawn) [Compound H075-8a] | 130 nM | > 10000 nM |  |
| CCC1(O)CC(OC2CC(N(C)C)C(OC3CC(O)C(OC4CC(O)C(O)C(C)O4)C(C)O3)C(C)O2)c2c(O)c3c(c(O)c2C1O)C(=O)c1cccc(O)c1C3=O (stereo not drawn) [Compound H075-10a] | 30 nM | 1300 nM | Median survival days (range) (P388 leukemia; 4 mg/kg i.p. on day 1): 15 (14-17) days; Median survival days (range) (P388 leukemia; 8 mg/kg i.p. on day 1): 14 (13-15) days; Median survival days (range) (P388 leukemia; 16 mg/kg i.p. on day 1): 14 (14-15) days |
| CC1OC(OC2C(C)OC(OC3CC(C)(O)C(O)c4c(O)c5c(c(O)c43)C(=O)c3c(O)cccc3C5=O)CC2N(C)C)CC(O)C1O (stereo not drawn) [Compound H075-11b] | 60 nM | 3500 nM | Median survival days (range) (P388 leukemia; 4 mg/kg i.p. on day 1): 13 (12-13) days; Median survival days (range) (P388 leukemia; 8 mg/kg i.p. on day 1): 14 (13-15) days; Median survival days (range) (P388 leukemia; 16 mg/kg i.p. on day 1): 16 (15-19) days |
| CC1OC(OC2C(O)CC(OC3CC(C)(O)C(O)c4c(O)c5c(c(O)c43)C(=O)c3c(O)cccc3C5=O)OC2C)CC(O)C1O (stereo not drawn) [Compound H075-11e] | 800 nM | > 10000 nM |  |
